The source made the active and inactive calls. The calls are words filed in the database; no cut-off is given here.
What was measured:
[1] = biological target: Cav1.2 (voltage-dependent L-type calcium channel subunit alpha-1C) (Rattus norvegicus, UniProt P22002); test: Inhibition of rat Cav1.2 at 10 uM at -90 mV holding potential by patch clamp electrophysiology assay relative to control
[2] = biological target: Voltage-dependent T-type calcium channel subunit alpha-1H (Homo sapiens) (UniProt O95180); test: Inhibition of human Cav3.2 at 10 uM at -110 mV holding potential by patch clamp electrophysiology assay
Sequence of Voltage-dependent T-type calcium channel subunit alpha-1H (Homo sapiens) (O95180 whole entry): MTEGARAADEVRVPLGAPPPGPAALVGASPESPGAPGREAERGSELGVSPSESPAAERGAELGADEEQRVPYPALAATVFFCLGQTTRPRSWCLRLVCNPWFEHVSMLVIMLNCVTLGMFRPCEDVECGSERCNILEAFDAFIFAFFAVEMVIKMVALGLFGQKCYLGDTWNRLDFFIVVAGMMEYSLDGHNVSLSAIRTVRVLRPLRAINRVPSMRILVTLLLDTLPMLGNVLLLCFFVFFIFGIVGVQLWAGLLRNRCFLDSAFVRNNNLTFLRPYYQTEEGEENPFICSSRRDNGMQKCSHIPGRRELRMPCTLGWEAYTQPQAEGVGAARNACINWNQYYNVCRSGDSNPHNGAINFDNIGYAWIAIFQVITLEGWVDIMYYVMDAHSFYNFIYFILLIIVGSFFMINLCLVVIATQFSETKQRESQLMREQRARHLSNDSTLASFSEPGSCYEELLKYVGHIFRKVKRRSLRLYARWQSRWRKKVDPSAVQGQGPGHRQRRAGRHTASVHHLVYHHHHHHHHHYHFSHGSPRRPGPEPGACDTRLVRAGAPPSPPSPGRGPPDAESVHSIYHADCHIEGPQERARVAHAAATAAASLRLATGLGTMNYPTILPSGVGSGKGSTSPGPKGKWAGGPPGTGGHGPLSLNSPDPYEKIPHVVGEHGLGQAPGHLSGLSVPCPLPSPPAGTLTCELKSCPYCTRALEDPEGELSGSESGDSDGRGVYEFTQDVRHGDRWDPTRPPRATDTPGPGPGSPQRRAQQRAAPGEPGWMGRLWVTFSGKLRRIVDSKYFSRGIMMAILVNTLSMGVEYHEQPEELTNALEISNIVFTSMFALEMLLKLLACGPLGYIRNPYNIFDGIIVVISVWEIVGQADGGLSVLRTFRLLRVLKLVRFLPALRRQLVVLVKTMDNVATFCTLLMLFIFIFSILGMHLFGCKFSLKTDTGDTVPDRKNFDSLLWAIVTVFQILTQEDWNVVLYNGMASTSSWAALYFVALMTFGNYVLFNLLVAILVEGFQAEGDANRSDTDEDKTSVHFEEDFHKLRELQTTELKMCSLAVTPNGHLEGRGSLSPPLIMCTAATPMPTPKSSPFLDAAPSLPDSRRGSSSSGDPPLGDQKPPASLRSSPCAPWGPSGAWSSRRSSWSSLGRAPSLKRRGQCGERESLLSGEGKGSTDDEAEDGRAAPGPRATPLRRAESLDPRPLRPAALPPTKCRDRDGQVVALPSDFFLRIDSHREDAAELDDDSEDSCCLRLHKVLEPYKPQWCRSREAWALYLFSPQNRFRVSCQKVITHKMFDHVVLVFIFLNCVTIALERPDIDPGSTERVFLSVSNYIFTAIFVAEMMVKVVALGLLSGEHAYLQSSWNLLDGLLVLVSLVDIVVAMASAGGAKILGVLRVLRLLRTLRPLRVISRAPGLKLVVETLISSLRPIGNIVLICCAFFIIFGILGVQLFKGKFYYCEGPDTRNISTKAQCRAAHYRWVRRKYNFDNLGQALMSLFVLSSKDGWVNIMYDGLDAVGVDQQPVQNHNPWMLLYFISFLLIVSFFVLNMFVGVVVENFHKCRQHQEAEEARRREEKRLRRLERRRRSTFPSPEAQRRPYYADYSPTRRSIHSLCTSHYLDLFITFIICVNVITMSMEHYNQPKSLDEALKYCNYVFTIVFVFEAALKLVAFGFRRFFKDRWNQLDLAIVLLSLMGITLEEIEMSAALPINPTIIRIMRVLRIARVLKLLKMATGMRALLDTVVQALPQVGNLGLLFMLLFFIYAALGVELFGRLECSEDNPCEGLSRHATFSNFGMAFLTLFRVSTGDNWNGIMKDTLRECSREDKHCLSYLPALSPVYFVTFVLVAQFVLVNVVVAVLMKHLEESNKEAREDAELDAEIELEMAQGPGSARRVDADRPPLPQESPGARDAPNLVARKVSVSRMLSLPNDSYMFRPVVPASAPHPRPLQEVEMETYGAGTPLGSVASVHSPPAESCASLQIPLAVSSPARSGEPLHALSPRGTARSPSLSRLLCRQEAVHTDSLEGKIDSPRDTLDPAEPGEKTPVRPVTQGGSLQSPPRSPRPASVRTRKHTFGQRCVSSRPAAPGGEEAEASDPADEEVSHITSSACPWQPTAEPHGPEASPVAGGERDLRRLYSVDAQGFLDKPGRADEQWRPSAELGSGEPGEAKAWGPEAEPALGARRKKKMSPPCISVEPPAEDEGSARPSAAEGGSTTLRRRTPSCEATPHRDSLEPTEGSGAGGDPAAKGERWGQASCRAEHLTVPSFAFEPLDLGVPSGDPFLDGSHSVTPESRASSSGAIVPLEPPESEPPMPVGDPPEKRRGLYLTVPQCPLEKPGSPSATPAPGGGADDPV

Sequence of Cav1.2 (voltage-dependent L-type calcium channel subunit alpha-1C) (P22002 whole entry): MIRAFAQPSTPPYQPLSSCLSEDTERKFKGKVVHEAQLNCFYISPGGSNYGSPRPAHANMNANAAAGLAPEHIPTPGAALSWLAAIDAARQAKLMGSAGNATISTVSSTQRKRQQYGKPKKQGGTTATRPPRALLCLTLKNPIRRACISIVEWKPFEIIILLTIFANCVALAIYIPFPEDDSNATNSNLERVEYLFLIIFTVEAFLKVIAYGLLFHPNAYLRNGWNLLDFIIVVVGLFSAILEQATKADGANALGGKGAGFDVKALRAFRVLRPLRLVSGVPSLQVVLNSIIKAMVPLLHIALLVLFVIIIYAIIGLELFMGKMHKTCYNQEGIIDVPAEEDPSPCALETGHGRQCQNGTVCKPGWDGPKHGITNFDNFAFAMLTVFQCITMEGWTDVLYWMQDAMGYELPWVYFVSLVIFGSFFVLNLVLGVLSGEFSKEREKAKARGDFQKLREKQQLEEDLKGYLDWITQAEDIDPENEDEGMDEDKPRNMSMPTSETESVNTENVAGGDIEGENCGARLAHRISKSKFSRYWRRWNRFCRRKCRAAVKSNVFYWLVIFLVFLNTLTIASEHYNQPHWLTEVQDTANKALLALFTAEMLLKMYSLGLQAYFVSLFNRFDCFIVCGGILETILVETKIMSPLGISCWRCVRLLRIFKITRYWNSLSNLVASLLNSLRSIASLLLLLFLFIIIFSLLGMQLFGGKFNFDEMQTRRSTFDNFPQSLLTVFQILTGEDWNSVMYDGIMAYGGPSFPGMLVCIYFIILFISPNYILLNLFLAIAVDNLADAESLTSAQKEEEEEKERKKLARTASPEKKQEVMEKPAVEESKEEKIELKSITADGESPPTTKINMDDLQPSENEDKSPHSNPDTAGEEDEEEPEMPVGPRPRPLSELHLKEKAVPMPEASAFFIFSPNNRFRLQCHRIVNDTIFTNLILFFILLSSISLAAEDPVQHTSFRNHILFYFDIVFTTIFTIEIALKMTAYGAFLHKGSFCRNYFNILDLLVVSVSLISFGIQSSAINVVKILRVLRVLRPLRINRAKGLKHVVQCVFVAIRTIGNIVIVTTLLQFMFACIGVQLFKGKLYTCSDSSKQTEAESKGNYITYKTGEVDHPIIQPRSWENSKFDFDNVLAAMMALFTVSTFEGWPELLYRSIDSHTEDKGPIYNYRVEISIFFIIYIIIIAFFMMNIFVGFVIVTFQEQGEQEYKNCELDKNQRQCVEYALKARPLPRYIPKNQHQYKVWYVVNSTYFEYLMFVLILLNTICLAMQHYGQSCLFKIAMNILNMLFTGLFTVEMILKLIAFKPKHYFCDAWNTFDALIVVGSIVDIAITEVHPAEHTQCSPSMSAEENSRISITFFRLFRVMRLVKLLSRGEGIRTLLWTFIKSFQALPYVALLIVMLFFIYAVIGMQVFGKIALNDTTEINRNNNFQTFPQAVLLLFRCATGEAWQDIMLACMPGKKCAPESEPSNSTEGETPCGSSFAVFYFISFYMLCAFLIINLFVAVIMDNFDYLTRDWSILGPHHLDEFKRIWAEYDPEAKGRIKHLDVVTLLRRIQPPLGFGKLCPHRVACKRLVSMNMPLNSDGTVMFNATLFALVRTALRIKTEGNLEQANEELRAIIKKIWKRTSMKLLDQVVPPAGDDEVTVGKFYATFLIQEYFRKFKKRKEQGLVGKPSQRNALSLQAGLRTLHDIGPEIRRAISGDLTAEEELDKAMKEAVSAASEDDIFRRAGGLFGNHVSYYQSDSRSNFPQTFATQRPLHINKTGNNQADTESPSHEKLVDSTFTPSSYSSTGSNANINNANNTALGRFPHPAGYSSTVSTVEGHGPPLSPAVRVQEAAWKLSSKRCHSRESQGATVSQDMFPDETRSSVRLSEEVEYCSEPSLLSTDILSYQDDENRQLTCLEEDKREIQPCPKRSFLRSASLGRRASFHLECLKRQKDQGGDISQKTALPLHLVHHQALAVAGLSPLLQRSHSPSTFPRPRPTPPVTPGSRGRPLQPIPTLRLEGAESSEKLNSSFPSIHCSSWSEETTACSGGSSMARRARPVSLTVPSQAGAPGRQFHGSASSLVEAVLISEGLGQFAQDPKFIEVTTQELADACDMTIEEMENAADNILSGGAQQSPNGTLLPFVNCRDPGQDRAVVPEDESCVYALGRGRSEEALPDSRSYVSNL

SMILES | inhibition at 10 µM [1] [%] | inhibition [2]
CC1=C(C(=O)OCC(C)C)C(c2cc([N+](=O)[O-])ccc2O)C2=C(CC(C)(C)CC2=O)N1 (centres undefined) | 30 | 
CC1=C(C(=O)OCC(C)C)C(c2ccc(O)c(C(F)(F)F)c2)C2=C(CCC(C)(C)C2=O)N1 (centres undefined) |  | Active
CCOC(=O)C1=C(C)NC2=C(C(=O)C(C)(C)CC2)C1c1ccc(O)c(C(F)(F)F)c1 (centres undefined) |  | Active
CC1=C(C(=O)OCC(C)C)C(c2cc([N+](=O)[O-])cc(Br)c2O)C2=C(CC(C)(C)CC2=O)N1 (centres undefined) | 70 | 
CC1=C(C(=O)OC(C)(C)C)C(c2cc([N+](=O)[O-])ccc2O)C2=C(CCC(C)(C)C2=O)N1 (centres undefined) | < 30 | 
CC1=C(C(=O)OCC(C)C)C(c2cc(Br)cc([N+](=O)[O-])c2O)C2=C(CCC(C)(C)C2=O)N1 (centres undefined) | 10 | 
CC1=C(C(=O)OCC(C)C)C(c2cc([N+](=O)[O-])ccc2O)C2=C(CCC(C)(C)C2=O)N1 (centres undefined) | 70 | 
CCOC(=O)C1=C(C)NC2=C(C(=O)C(C)(C)CC2)C1c1cc([N+](=O)[O-])ccc1O (centres undefined) | 70 | 
CCOC(=O)C1=C(C)NC2=C(C(=O)C(C)(C)CC2)C1c1cc(Br)cc([N+](=O)[O-])c1O (centres undefined) | 50 | Active
COC(=O)C1=C(C)NC2=C(C(=O)C(C)(C)CC2)C1c1cc([N+](=O)[O-])ccc1O (centres undefined) | < 30 | 
CC1=C(C(=O)OCC(C)C)C(c2cc([N+](=O)[O-])cc(Br)c2O)C2=C(CCC(C)(C)C2=O)N1 (centres undefined) | 15 | 
CC1=C(C(=O)OCc2ccccc2)C(c2cc([N+](=O)[O-])ccc2O)C2=C(CCC(C)(C)C2=O)N1 (centres undefined) | 70 | 
CC1=C(C(=O)OCC(C)C)C(c2cc([N+](=O)[O-])cc([N+](=O)[O-])c2O)C2=C(CCC(C)(C)C2=O)N1 (centres undefined) |  | Active

Source: ChEMBL document CHEMBL4152280, “Binding mechanism investigations guiding the synthesis of novel condensed 1,4-dihydropyridine derivatives with L-/T-type calcium channel blocking activity” (Eur J Med Chem, 2018)
